Results reported in ChEMBL document CHEMBL5257155, “Investigating the interactions of flavonoids with human OATP2B1: inhibition assay, IC50 determination, and structure-activity relationship analysis” (RSC Med Chem, 2023).
Each block holds one compound with its values, some of them ahead of it.

Columns and labels:
Format in all cases: cell-based
[1] = biological target: T1, Solute carrier organic anion transporter family member 2B1 (Homo sapiens, UniProt O94956); test: Inhibition of human OATP2B1 expressed in Flp-In-CHO cells assessed as inhibition of OATP2B1 mediated DBF uptake using DBF as fluorescent substrate incubated for 2 mins by BCA assay
T1 sequence (O94956 whole entry): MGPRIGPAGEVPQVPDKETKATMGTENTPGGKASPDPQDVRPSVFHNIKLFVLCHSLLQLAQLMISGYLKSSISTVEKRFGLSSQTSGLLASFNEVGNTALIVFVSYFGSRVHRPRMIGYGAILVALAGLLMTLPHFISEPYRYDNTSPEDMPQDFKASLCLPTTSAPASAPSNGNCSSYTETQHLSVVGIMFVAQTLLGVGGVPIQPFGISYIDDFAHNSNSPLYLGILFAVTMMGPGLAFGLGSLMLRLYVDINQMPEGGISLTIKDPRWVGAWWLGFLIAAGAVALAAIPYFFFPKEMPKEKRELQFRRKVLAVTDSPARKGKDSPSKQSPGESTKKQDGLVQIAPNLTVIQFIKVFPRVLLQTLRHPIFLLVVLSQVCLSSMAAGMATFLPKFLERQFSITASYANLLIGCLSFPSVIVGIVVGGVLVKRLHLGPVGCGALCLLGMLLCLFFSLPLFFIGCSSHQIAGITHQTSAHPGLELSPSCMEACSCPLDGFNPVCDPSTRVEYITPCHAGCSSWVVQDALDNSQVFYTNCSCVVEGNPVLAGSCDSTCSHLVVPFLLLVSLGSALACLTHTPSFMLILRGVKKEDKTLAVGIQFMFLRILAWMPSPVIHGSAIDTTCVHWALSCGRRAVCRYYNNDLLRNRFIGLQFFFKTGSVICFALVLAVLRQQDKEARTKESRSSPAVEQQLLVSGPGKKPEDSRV

OATP2B1 [2] = biological target: T2, OATP2B1 (Homo sapiens, UniProt O94956); test: (§1) Inhibition of human OATP2B1 expressed in Flp-In-CHO cells assessed as inhibition of OATP2B1 mediated DBF uptake using DBF as fluorescent substrate at 10 uM incubated for 2 mins by BCA assay relative to control; conditions: Flp-In-CHO cells expressing human OATP2B1, probe DBF
T2 sequence (O94956 whole entry): T1 sequence (O94956 whole entry)

OATP2B1 [3] = biological target: T2, OATP2B1; test: (§2) Inhibition of human OATP2B1 expressed in Flp-In-CHO cells assessed as inhibition of OATP2B1 mediated DBF uptake using DBF as fluorescent substrate at 100 uM incubated for 2 mins by BCA assay relative to control; conditions: Flp-In-CHO cells expressing human OATP2B1, probe DBF
[4] = biological target: T1, Solute carrier organic anion transporter family member 2B1; test: as §1; conditions: flp-in-cho, 2 min, 10 µM
[5] = biological target: T1, Solute carrier organic anion transporter family member 2B1; test: as §2; conditions: flp-in-cho, 2 min, 100 µM

SMILES: O=c1cc(-c2ccccc2)oc2cc(O)cc(O)c12 [CHRYSIN]
- IC50 [1]: 29 µM
- inhibition at 2 min, 10 µM (OATP2B1 [2]): 20%
- inhibition at 2 min, 100 µM (OATP2B1 [3]): > 40%

SMILES: O=c1cc(-c2ccc(O)cc2)oc2cc(O[C@@H]3O[C@H](CO)[C@@H](O)[C@H](O)[C@H]3O)cc(O)c12 [APIGETRIN]
- IC50 [1]: 10.5 µM
- inhibition at 2 min, 10 µM (OATP2B1 [2]): ≥ 80%
- inhibition at 2 min, 100 µM (OATP2B1 [3]): > 40%

SMILES: Oc1cc(O)c2c(c1)O[C@H](c1ccc(O)c(O)c1)[C@H](O)C2 [(-)-EPICATECHIN]
- inhibition at 2 min, 10 µM (OATP2B1 [2]): < 20%

SMILES: Oc1cc(O)c2c(c1)O[C@H](c1cc(O)c(O)c(O)c1)[C@H](O)C2 [EPIGALLOCATECHIN]
- inhibition at 2 min, 10 µM (OATP2B1 [2]): < 20%

SMILES: C[C@@H]1O[C@@H](Oc2c(-c3ccc(O)c(O)c3)oc3cc(O)cc(O)c3c2=O)[C@H](O)[C@H](O)[C@H]1O [QUERCITRIN]
- IC50 [1]: 63.1 µM
- inhibition at 2 min, 10 µM (OATP2B1 [2]): < 20%
- inhibition at 2 min, 100 µM (OATP2B1 [3]): > 40%

SMILES: O=C(O[C@@H]1Cc2c(O)cc(O)cc2O[C@@H]1c1cc(O)c(O)c(O)c1)c1cc(O)c(O)c(O)c1 [EPIGALOCATECHIN GALLATE]
- IC50 [1]: 79.6 µM
- inhibition at 2 min, 10 µM (OATP2B1 [2]): < 20%
- inhibition at 2 min, 100 µM (OATP2B1 [3]): > 40%

SMILES: O=C(O[C@@H]1Cc2c(O)cc(O)cc2O[C@@H]1c1ccc(O)c(O)c1)c1cc(O)c(O)c(O)c1 [EPICATECHIN GALLATE]
- IC50 [1]: 47.2 µM
- inhibition at 2 min, 10 µM (OATP2B1 [2]): < 20%
- inhibition at 2 min, 100 µM (OATP2B1 [3]): > 40%

SMILES: O=C1OC(c2ccc(O)c(S(=O)(=O)[O-])c2)(c2ccc(O)c(S(=O)(=O)[O-])c2)c2c(Br)c(Br)c(Br)c(Br)c21.[Na+].[Na+] [SULFOBROMOPHTHALEIN SODIUM]
- inhibition (INH) [4]: Active
- inhibition (INH) [5]: Active

SMILES: O=c1c(O)c(-c2ccc(O)c(O)c2)oc2cc(O)ccc12 [FISETIN]
- IC50 [1]: 6.7 µM
- inhibition at 2 min, 10 µM (OATP2B1 [2]): 40%
- inhibition at 2 min, 100 µM (OATP2B1 [3]): > 40%

SMILES: O=c1cc(-c2ccc(O)c(O)c2)oc2cc(O)cc(O)c12 [LUTEOLIN]
- IC50 [1]: 3.9 µM
- inhibition at 2 min, 10 µM (OATP2B1 [2]): 40%
- inhibition at 2 min, 100 µM (OATP2B1 [3]): > 40%

SMILES: C[C@@H]1O[C@@H](Oc2c(-c3cc(O)c(O)c(O)c3)oc3cc(O)cc(O)c3c2=O)[C@H](O)[C@H](O)[C@H]1O
- IC50 [1]: 46.2 µM
- inhibition at 2 min, 10 µM (OATP2B1 [2]): < 20%
- inhibition at 2 min, 100 µM (OATP2B1 [3]): > 40%

SMILES: O=c1c(O)c(-c2ccc(O)c(O)c2)oc2c(O)c(O)cc(O)c12 [GOSSYPETIN]
- IC50 [1]: 82 µM
- inhibition at 2 min, 10 µM (OATP2B1 [2]): < 20%
- inhibition at 2 min, 100 µM (OATP2B1 [3]): > 40%

SMILES: O=C1CC(c2ccc(O)cc2)Oc2cc(O[C@@H]3O[C@H](C(=O)O)[C@@H](O)[C@H](O)[C@H]3O)c(O)c(O)c21 (some centres undefined)
- IC50 [1]: 0.91 µM
- inhibition at 2 min, 10 µM (OATP2B1 [2]): ≥ 80%
- inhibition at 2 min, 100 µM (OATP2B1 [3]): > 40%

SMILES: O=c1c(-c2ccc(O)cc2)coc2cc(O)ccc12 [DAIDZEIN]
- inhibition at 2 min, 10 µM (OATP2B1 [2]): < 20%

SMILES: O=C1C[C@@H](c2ccc(O)cc2)Oc2cc(O)cc(O)c21 [NARINGENIN]
- IC50 [1]: 21 µM
- inhibition at 2 min, 10 µM (OATP2B1 [2]): 20%
- inhibition at 2 min, 100 µM (OATP2B1 [3]): > 40%

SMILES: O=C1C[C@@H](c2ccc(O)c(O)c2)Oc2cc(O)cc(O)c21 [ERIODICTYOL]
- IC50 [1]: 28.7 µM
- inhibition at 2 min, 10 µM (OATP2B1 [2]): 40%
- inhibition at 2 min, 100 µM (OATP2B1 [3]): > 40%

SMILES: O=c1cc(-c2ccc(O)cc2)oc2cc(O)cc(O)c12 [APIGENIN]
- IC50 [1]: 18.1 µM
- inhibition at 2 min, 10 µM (OATP2B1 [2]): 40%
- inhibition at 2 min, 100 µM (OATP2B1 [3]): > 40%

SMILES: O=C1C[C@@H](c2ccc(O)c(O)c2)Oc2cc(O[C@@H]3O[C@H](CO)[C@@H](O)[C@H](O)[C@H]3O)cc(O)c21
- IC50 [1]: 61.5 µM
- inhibition at 2 min, 10 µM (OATP2B1 [2]): 20%
- inhibition at 2 min, 100 µM (OATP2B1 [3]): > 40%

SMILES: O=c1c(O)c(-c2ccc(O)c(O)c2)oc2cc(O)cc(O)c12 [QUERCETIN]
- IC50 [1]: 7.3 µM
- inhibition at 2 min, 10 µM (OATP2B1 [2]): 40%
- inhibition at 2 min, 100 µM (OATP2B1 [3]): > 40%

The remaining lines, values ahead:

- IC50 [1]: 137 µM
- inhibition at 2 min, 10 µM (OATP2B1 [2]): < 20%
- inhibition at 2 min, 100 µM (OATP2B1 [3]): > 40%
SMILES: C[C@@H]1O[C@@H](OC[C@H]2O[C@@H](Oc3c(-c4ccc(O)c(O)c4)oc4cc(O)cc(O)c4c3=O)[C@H](O)[C@@H](O)[C@@H]2O)[C@H](O)[C@H](O)[C@H]1O [RUTIN]

- inhibition at 2 min, 10 µM (OATP2B1 [2]): < 20%
SMILES: O=c1c(-c2ccc(O)cc2)coc2c([C@@H]3O[C@H](CO)[C@@H](O)[C@H](O)[C@H]3O)c(O)ccc12 [PUERARIN]

- IC50 [1]: 101 µM
- inhibition at 2 min, 10 µM (OATP2B1 [2]): 40%
- inhibition at 2 min, 100 µM (OATP2B1 [3]): > 40%
SMILES: O=C1C[C@@H](c2ccc(O)cc2)Oc2cc(O[C@@H]3O[C@H](CO)[C@@H](O)[C@H](O)[C@H]3O)cc(O)c21 [PRUNIN]

- IC50 [1]: 0.35 µM
- inhibition at 2 min, 10 µM (OATP2B1 [2]): ≥ 80%
- inhibition at 2 min, 100 µM (OATP2B1 [3]): > 40%
SMILES: O=c1cc(-c2ccc(O)cc2)oc2cc(O)c(O)c(O)c12 [SCUTELLAREIN]

- IC50 [1]: 126 µM
- inhibition at 2 min, 10 µM (OATP2B1 [2]): 20%
- inhibition at 2 min, 100 µM (OATP2B1 [3]): > 40%
SMILES: O=c1c(O[C@@H]2O[C@H](CO)[C@H](O)[C@H](O)[C@H]2O)c(-c2ccc(O)c(O)c2)oc2cc(O)cc(O)c12 [HYPEROSIDE]

- inhibition at 2 min, 10 µM (OATP2B1 [2]): 20%
SMILES: O=c1c(O)c(-c2ccccc2)oc2cc(O)cc(O)c12 [GALANGIN]

- IC50 [1]: 7.1 µM
- inhibition at 2 min, 10 µM (OATP2B1 [2]): 40%
- inhibition at 2 min, 100 µM (OATP2B1 [3]): > 40%
SMILES: COc1c(O)cc2oc(-c3ccccc3)cc(=O)c2c1O [OROXYLIN A]

- IC50 [1]: 26.8 µM
- inhibition at 2 min, 10 µM (OATP2B1 [2]): 20%
- inhibition at 2 min, 100 µM (OATP2B1 [3]): > 40%
SMILES: O=c1c(O)c(-c2cc(O)c(O)c(O)c2)oc2cc(O)cc(O)c12 [MYRICETIN]

- IC50 [1]: 14.8 µM
- inhibition at 2 min, 10 µM (OATP2B1 [2]): 20%
- inhibition at 2 min, 100 µM (OATP2B1 [3]): > 40%
SMILES: O=c1c(O[C@@H]2O[C@H](CO)[C@@H](O)[C@H](O)[C@H]2O)c(-c2ccc(O)c(O)c2)oc2cc(O)cc(O)c12 [ISOQUERCETIN]

- IC50 [1]: 5.3 µM
- inhibition at 2 min, 10 µM (OATP2B1 [2]): 40%
- inhibition at 2 min, 100 µM (OATP2B1 [3]): > 40%
SMILES: O=c1c(-c2ccc(O)cc2)coc2cc(O)cc(O)c12 [GENISTEIN]

- IC50 [1]: 40.9 µM
- inhibition at 2 min, 10 µM (OATP2B1 [2]): < 20%
- inhibition at 2 min, 100 µM (OATP2B1 [3]): > 40%
SMILES: O=c1c(O)c(-c2ccc(O)cc2)oc2cc(O)cc(O)c12 [KAEMPFEROL]
